Experimental data from paper PMC3703636 (2013).

Key:
Assay in all cases: gel filtration, radiolabeled GTP
Details in all cases: reduced relative to wild type
[1] = tested on: NRAS translational repressor mut (RNA, G4) GGUAGGGUCGGUUCUGGU
[2] = tested on: c-MYC transcriptional repressor mut (DNA, G4) GGGTAGGAAGGGTAGGA
[3] = tested on: VEGF IRES mut (RNA, G4) UGAUGAGUGUGAGGAGGA

Measured: binding

Nc1nc2c(ncn2[C@@H]2O[C@H](COP(=O)(O)OP(=O)(O)OP(=O)(O)O)[C@@H](O)[C@H]2O)c(=O)[nH]1
weak: [1] | [2] | [3]
